Reference: ChEMBL document CHEMBL4483862, “Open-source discovery of chemical leads for next-generation chemoprotective antimalarials” (2018)

Tested on: Plasmodium berghei
Experiment: Luciferase/luciferin-expressing antifolate-resistant parasites were used to infect a culture of HepG2 cells that were pre-incubated with compounds. Infected hepatocytes emit light due to the luciferase reaction. Assay results are presented as the percent inhibition of light emission compared to control. […]
Type: functional
Conditions: sporozoite; for IC90: read-out: LUCIFERASE INFECTION ASSAY - IC90

SMILES | IC90 [µM] | also measured
O=C(NC1CC1)c1ccc(-c2cnc3c(NCC4CC4)nccn23)cc1 | 6.12 | IC50 (HEPG2TOX_HILL_SLOPE 1.1, HEPG2TOX_R_SQUARED 0.94, PBLUC_HILL_SLOPE 4.24, PBLUC_R_SQUARED 0.447, read-out: LUCIFERASE INFECTION ASSAY - IC50): 3.65 µM
Cc1nn2c(=O)cc(-c3ccccc3)[nH]c2c1-c1ccc(F)cc1 | 1.16 | IC50 (HEPG2TOX_HILL_SLOPE 1.12, HEPG2TOX_R_SQUARED 0.564, PBLUC_HILL_SLOPE 22.2, PBLUC_R_SQUARED 0.649, read-out: LUCIFERASE INFECTION ASSAY - IC50): 1.05 µM
C/C(=N\NC(N)=S)c1ccccn1 | 2.4 | IC50 (HEPG2TOX_HILL_SLOPE 1.14, HEPG2TOX_R_SQUARED 0.913, PBLUC_HILL_SLOPE 1.97, PBLUC_R_SQUARED 0.843, read-out: LUCIFERASE INFECTION ASSAY - IC50): 0.788 µM
Cc1ccc2c(Cl)cc(Cl)c(OCC(=O)c3c[nH]c(C(=O)N4CCCC4)c3)c2n1 | 8.53 | IC50 (HEPG2TOX_HILL_SLOPE 1.13, HEPG2TOX_R_SQUARED 0.949, PBLUC_HILL_SLOPE 1.15, PBLUC_R_SQUARED 0.754, read-out: LUCIFERASE INFECTION ASSAY - IC50): 1.25 µM
CCCCc1noc(C(C)Sc2nc(C(C)(C)C)nc3c2c(=O)n(C)c(=O)n3C)n1 (centres undefined) | > 10 | IC50 (HEPG2TOX_HILL_SLOPE 1.13, HEPG2TOX_R_SQUARED 0.608, PBLUC_HILL_SLOPE 1.15, PBLUC_R_SQUARED 0.641, read-out: LUCIFERASE INFECTION ASSAY - IC50): 3.92 µM
COc1ccc2ccccc2c1/C=N/Nc1ncc(C(F)(F)F)cc1Cl | > 10 | IC50 (HEPG2TOX_HILL_SLOPE 1.11, HEPG2TOX_R_SQUARED 0.987, read-out: LUCIFERASE INFECTION ASSAY - IC50): > 10 µM
CC(=O)c1cccc(-c2cnc3ccc(Cc4ccccc4)nn23)c1 | 8.78 | IC50 (HEPG2TOX_HILL_SLOPE 1.13, HEPG2TOX_R_SQUARED 0.363, PBLUC_HILL_SLOPE 4.01, PBLUC_R_SQUARED 0.469, read-out: LUCIFERASE INFECTION ASSAY - IC50): 5.08 µM
COc1cc(-c2cnc3cnc(-c4cccs4)cn23)cc(OC)c1OC | 2.1 | IC50 (HEPG2TOX_HILL_SLOPE 1.1, HEPG2TOX_R_SQUARED 0.918, PBLUC_HILL_SLOPE 2.83, PBLUC_R_SQUARED 0.515, read-out: LUCIFERASE INFECTION ASSAY - IC50): 0.964 µM
COc1ccc(-c2ccc(/C=N/Nc3ccc(F)cc3)s2)cc1 | 5.44 | IC50 (HEPG2TOX_HILL_SLOPE 1.1, HEPG2TOX_R_SQUARED 0.99, PBLUC_HILL_SLOPE 2.83, PBLUC_R_SQUARED 0.421, read-out: LUCIFERASE INFECTION ASSAY - IC50): 2.5 µM
Cn1c(-c2ccco2)nc2cnc(Nc3cccc(F)c3)cc21 | > 10 | IC50 (HEPG2TOX_HILL_SLOPE 1.1, HEPG2TOX_R_SQUARED 0.907, read-out: LUCIFERASE INFECTION ASSAY - IC50): > 10 µM
COc1ccc2cc(/C(C)=N/OC(=O)Nc3ccccc3)ccc2c1 | > 9.87 | IC50 (HEPG2TOX_HILL_SLOPE 1.11, HEPG2TOX_R_SQUARED 0.992, read-out: LUCIFERASE INFECTION ASSAY - IC50): > 9.87 µM
CCOc1ccc(/C=C/c2ccc3c(Cl)cc(Cl)c(O)c3n2)cc1OC | > 10 | IC50 (HEPG2TOX_HILL_SLOPE 1.14, HEPG2TOX_R_SQUARED 0.782, PBLUC_HILL_SLOPE 2.47, PBLUC_R_SQUARED 0.699, read-out: LUCIFERASE INFECTION ASSAY - IC50): 4.52 µM
O=C(C1=NNCC1c1ccccc1)c1ccc2ccccc2c1 (centres undefined) | > 11 | IC50 (HEPG2TOX_HILL_SLOPE 1.14, HEPG2TOX_R_SQUARED 0.985, PBLUC_HILL_SLOPE 1.79, PBLUC_R_SQUARED 0.146, read-out: LUCIFERASE INFECTION ASSAY - IC50): 5.28 µM
Cc1ccc2nc(NC(=O)c3cc(F)c(F)cc3F)c(C(=O)NC3CCCC3)n2c1 | 2.75 | IC50 (HEPG2TOX_HILL_SLOPE 1.15, HEPG2TOX_R_SQUARED 0.906, PBLUC_HILL_SLOPE 3.53, PBLUC_R_SQUARED 0.394, read-out: LUCIFERASE INFECTION ASSAY - IC50): 1.47 µM
COc1ccc(-c2cc(-c3cccc(NS(C)(=O)=O)c3)cnc2N)c(OC)c1 | 4.29 | IC50 (HEPG2TOX_HILL_SLOPE 1.15, HEPG2TOX_R_SQUARED 0.874, PBLUC_HILL_SLOPE 1.81, PBLUC_R_SQUARED 0.713, read-out: LUCIFERASE INFECTION ASSAY - IC50): 1.27 µM
C=CCN(c1ccc(C(=O)Nc2ccc(C(F)(F)F)cc2)cc1)S(C)(=O)=O | 7.12 | IC50 (HEPG2TOX_HILL_SLOPE 1.13, HEPG2TOX_R_SQUARED 0.916, PBLUC_HILL_SLOPE 2.09, PBLUC_R_SQUARED 0.336, read-out: LUCIFERASE INFECTION ASSAY - IC50): 2.49 µM

SMILES | IC90 [µM] | also measured
CCCCN(Cc1nc(=O)c2ccccc2[nH]1)C(=O)c1cc2c(F)cccc2s1 | > 10 | IC50 (HEPG2TOX_HILL_SLOPE 1.1, HEPG2TOX_R_SQUARED 0.0883, read-out: LUCIFERASE INFECTION ASSAY - IC50): > 10 µM
COc1cc(C)c(Nc2cc(-c3ccc(N(C)C)cc3)ncn2)cc1OC | 0.48 | IC50 (HEPG2TOX_HILL_SLOPE 1.1, HEPG2TOX_R_SQUARED 0.88, PBLUC_HILL_SLOPE 3.68, PBLUC_R_SQUARED 0.773, read-out: LUCIFERASE INFECTION ASSAY - IC50): 0.264 µM
N#Cc1ccc(Cc2cnc(NC(=O)c3ccc4ncsc4c3)s2)cc1 | 1.82 | IC50 (HEPG2TOX_HILL_SLOPE 1.13, HEPG2TOX_R_SQUARED 0.797, PBLUC_HILL_SLOPE 1.77, PBLUC_R_SQUARED 0.567, read-out: LUCIFERASE INFECTION ASSAY - IC50): 0.526 µM
ONC(=NC(=S)Nc1cc(Cl)ccc1Cl)c1ccccn1 | 9.52 | IC50 (HEPG2TOX_HILL_SLOPE 1.13, HEPG2TOX_R_SQUARED 0.776, PBLUC_HILL_SLOPE 15.8, PBLUC_R_SQUARED 0.357, read-out: LUCIFERASE INFECTION ASSAY - IC50): 8.29 µM
c1ccc(Oc2cccc(Nc3nccc4nc(-c5ccccc5)[nH]c34)c2)cc1 | 3.51 | IC50 (HEPG2TOX_HILL_SLOPE 1.11, HEPG2TOX_R_SQUARED 0.909, PBLUC_HILL_SLOPE 45.8, PBLUC_R_SQUARED 0.688, read-out: LUCIFERASE INFECTION ASSAY - IC50): 3.34 µM
CCCNC(=O)c1c(NC(=O)c2ccccc2)nc2ccc(C)cn12 | 7.77 | IC50 (HEPG2TOX_HILL_SLOPE 1.15, HEPG2TOX_R_SQUARED 0.736, PBLUC_HILL_SLOPE 3.57, PBLUC_R_SQUARED 0.289, read-out: LUCIFERASE INFECTION ASSAY - IC50): 4.2 µM
COc1cc(C(=O)NNC(=O)c2ccc(Br)cc2)ccc1OCc1c(C)noc1C | 7.1 | IC50 (HEPG2TOX_HILL_SLOPE 1.09, HEPG2TOX_R_SQUARED 0.959, PBLUC_HILL_SLOPE 2.18, PBLUC_R_SQUARED 0.498, read-out: LUCIFERASE INFECTION ASSAY - IC50): 2.59 µM
Cc1ccc(NC(=O)NC(=O)c2c(-c3snnc3C)noc2C)cc1 | > 9.23 | IC50 (HEPG2TOX_HILL_SLOPE 1.11, HEPG2TOX_R_SQUARED 0.954, PBLUC_HILL_SLOPE 1.54, PBLUC_R_SQUARED 0.355, read-out: LUCIFERASE INFECTION ASSAY - IC50): 2.53 µM
O=C(Nc1ncc(Cc2ccc(Br)cc2)s1)c1ccc2n[nH]nc2c1 | 1.27 | IC50 (HEPG2TOX_HILL_SLOPE 1.09, HEPG2TOX_R_SQUARED 0.989, PBLUC_HILL_SLOPE 1.74, PBLUC_R_SQUARED 0.819, read-out: LUCIFERASE INFECTION ASSAY - IC50): 0.359 µM
CC(C)(C)NC(=S)N/N=C/c1cc(Cl)cc(Cl)c1O | 6.66 | IC50 (HEPG2TOX_HILL_SLOPE 1.14, HEPG2TOX_R_SQUARED 0.984, PBLUC_HILL_SLOPE 2.14, PBLUC_R_SQUARED 0.291, read-out: LUCIFERASE INFECTION ASSAY - IC50): 2.39 µM
CCOc1cc2ccccc2cc1C(=O)NNC(=O)c1ccccn1 | 1.23 | IC50 (HEPG2TOX_HILL_SLOPE 1.13, 0.817, HEPG2TOX_R_SQUARED 0.858, 0.909, PBLUC_HILL_SLOPE 4.86, PBLUC_R_SQUARED 0.852, read-out: LUCIFERASE INFECTION ASSAY - IC50): 0.78 µM
COc1cc(-c2nccc3n[nH]c(C)c23)cc(OC)c1OC | > 10 | IC50 (HEPG2TOX_HILL_SLOPE 1.13, HEPG2TOX_R_SQUARED 0.879, read-out: LUCIFERASE INFECTION ASSAY - IC50): > 10 µM
O=C(Nc1nc2ccccn2c1C(=O)NC1CCCCC1)c1cc(F)ccc1F | 2.12 | IC50 (HEPG2TOX_HILL_SLOPE 1.14, HEPG2TOX_R_SQUARED 0.869, PBLUC_HILL_SLOPE 2.93, PBLUC_R_SQUARED 0.682, read-out: LUCIFERASE INFECTION ASSAY - IC50): 1 µM
CCc1sc(C(=O)Nc2cnc3ccccc3c2)cc1C | > 10 | IC50 (HEPG2TOX_HILL_SLOPE 1.13, HEPG2TOX_R_SQUARED 0.365, PBLUC_HILL_SLOPE 0.275, PBLUC_R_SQUARED 0.613, read-out: LUCIFERASE INFECTION ASSAY - IC50): 0.46 µM
CC(=O)c1cccc(-c2cnc3ccc(-c4cncnc4)nn23)c1 | 3.69 | IC50 (HEPG2TOX_HILL_SLOPE 1.11, HEPG2TOX_R_SQUARED 0.828, PBLUC_HILL_SLOPE 6.15, PBLUC_R_SQUARED 0.481, read-out: LUCIFERASE INFECTION ASSAY - IC50): 2.58 µM
Cn1c(CC(=O)NNC(=O)c2ccccc2Nc2ccccc2)nc2ccccc21 | 3.3 | IC50 (HEPG2TOX_HILL_SLOPE 1.15, HEPG2TOX_R_SQUARED 0.894, PBLUC_HILL_SLOPE 16.3, PBLUC_R_SQUARED 0.746, read-out: LUCIFERASE INFECTION ASSAY - IC50): 2.88 µM
